In patent US7511133B2, “Adenosine A3 receptor agonists” (King Pharmaceuticals Research and Development, Inc., priority 2003, dated 2009):

How the values were obtained:
[1] = target: T1, human A2A adenosine receptors (Homo sapiens, UniProt P29274); test: Displacement of [^3H]CGS21680 binding, human A2A adenosine receptors in CHO cells (agonist radioligand); details: human A2A, CHO cells, [^3H]CGS21680; read-out: Ki(A2A). Displacement of [^3H]CGS21680 binding to human A2A adenosine receptors exp. in CHO cells.
T1 construct: expressed in transfected cells; host or cells: CHO cells

human A1 receptors = target: T2, human A1 receptors (Homo sapiens, UniProt P30542); test: [^3H] DPCPX binding to human A1 receptors expressed in CHO cells (antagonist radioligand); details: human A1, CHO cells, antagonist radioligand; read-out: [^3H] DPCPX binding to human A1 receptors expressed in CHO cells Ki
T2 construct: expressed in transfected cells; host or cells: CHO cells
T2 sequence (P30542 1-326): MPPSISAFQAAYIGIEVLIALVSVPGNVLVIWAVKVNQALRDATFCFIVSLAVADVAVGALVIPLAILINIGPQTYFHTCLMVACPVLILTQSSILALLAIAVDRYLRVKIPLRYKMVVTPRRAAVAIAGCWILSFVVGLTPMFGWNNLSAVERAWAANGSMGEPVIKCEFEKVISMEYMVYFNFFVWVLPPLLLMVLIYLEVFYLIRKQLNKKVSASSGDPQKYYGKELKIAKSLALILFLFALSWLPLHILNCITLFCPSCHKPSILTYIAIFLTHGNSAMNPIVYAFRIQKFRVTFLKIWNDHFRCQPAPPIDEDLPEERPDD
Procedure: Binding assay methodology for the human data with antagonist radioligands. […] Arch. […] The cells were grown adherently and maintained in Dulbecco's Modified Eagles Medium with nutrient mixture F12 (DMEM/F12) without nucleosides, containing 10% fetal calf serum, penicillin (100 U/ml), streptomycin (100 μg/ml), L-glutamine (2 mM) and Geneticin (G418, 0.2 mg/ml) at 37° C. in 5% CO2/95% air. Cells were split 2 or 3 times weekly at a ratio between 1:5 and 1:20. For membrane preparation the culture medium was removed and the cells were washed with PBS and scraped off T75 flasks in ice-cold hypotonic buffer (5 mM Tris HCl, 2 mM EDTA, pH 7.4). The cell suspension was homogenized with Polytron and the homogenate was spun for 10 min at 1,000×g. The supernatant was then centrifuged for 30 min at 100,000×g. The membrane pellet was resuspended in 50 mM Tris HCl buffer pH 7.4 (for A3 adenosine receptors: 50 mM Tris HCl, 10 mM MgCl2, 1 mM EDTA) and incubated with 3 UI/ml of Adenosine deaminase for 30 min at 37° C. Then the suspension was frozen at −80° C. HEK 293 cells transfected with the human recombinant A2B adenosine receptor were obtained from Receptor Biology, Inc. (Beltsville, Md., USA).
Displacement experiments were performed for 120 min at 25° C. in 0.2 ml of 50 mM Tris HCl buffer pH 7.4 containing 1 nM [3H]-DPCPX, diluted membranes (50 μg of protein/assay) and at least 6-8 different concentrations of antagonists studied. Non-specific binding was determined in the presence of 10 μM of CHA and this was always ≦10% of the total binding.

human A2A receptors = target: T3, human A2A receptors (Homo sapiens, UniProt P29274); test: [^3H] SCH58261 binding to human A2A receptors expressed in CHO cells (antagonist radioligand); details: human A2A, CHO cells, antagonist radioligand; read-out: [^3H] SCH58261 binding to human A2A receptors expressed in CHO cells Ki
T3 construct: expressed in transfected cells; host or cells: CHO cells
Procedure: (§1) Binding assay methodology for the human data with antagonist radioligands. […] Arch. Pharmacol. 357: 1-9, (1998). The cells were grown adherently and maintained in Dulbecco's Modified Eagles Medium with nutrient mixture F12 (DMEM/F12) without nucleosides, containing 10% fetal calf serum, penicillin (100 U/ml), streptomycin (100 μg/ml), L-glutamine (2 mM) and Geneticin (G418, 0.2 mg/ml) at 37° C. in 5% CO2/95% air. Cells were split 2 or 3 times weekly at a ratio between 1:5 and 1:20. For membrane preparation the culture medium was removed and the cells were washed with PBS and scraped off T75 flasks in ice-cold hypotonic buffer (5 mM Tris HCl, 2 mM EDTA, pH 7.4). The cell suspension was homogenized with Polytron and the homogenate was spun for 10 min at 1,000×g. The supernatant was then centrifuged for 30 min at 100,000×g. The membrane pellet was resuspended in 50 mM Tris HCl buffer pH 7.4 (for A3 adenosine receptors: 50 mM Tris HCl, 10 mM MgCl2, 1 mM EDTA) and incubated with 3 UI/ml of Adenosine deaminase for 30 min at 37° C. Then the suspension was frozen at −80° C. HEK 293 cells transfected with the human recombinant A2B adenosine receptor were obtained from Receptor Biology, Inc. (Beltsville, Md., USA).
Binding of [^3H]-SCH 58261 to CHO cells transfected with the human recombinant A2A adenosine receptors (50 μg of protein/assay) was performed using 0.2 ml 50 mM Tris HCl buffer, 10 mM MgCl2 pH 7.4 and at least 6-8 different concentrations of antagonists studied for an incubation time of 30 min at 25° C.

human hA2B receptors = target: T4, human hA2B receptors (Homo sapiens, UniProt P29275); test: [^3H] DPCPX binding to human hA2B receptors expressed in HEK293 cells (antagonist radioligand); details: human A2B, HEK293 cells, antagonist radioligand; read-out: [^3H] DPCPX binding to human hA2B receptors expressed in HEK293 cells Ki
T4 construct: host or cells: HEK 293 cells
T4 sequence (P29275 1-332): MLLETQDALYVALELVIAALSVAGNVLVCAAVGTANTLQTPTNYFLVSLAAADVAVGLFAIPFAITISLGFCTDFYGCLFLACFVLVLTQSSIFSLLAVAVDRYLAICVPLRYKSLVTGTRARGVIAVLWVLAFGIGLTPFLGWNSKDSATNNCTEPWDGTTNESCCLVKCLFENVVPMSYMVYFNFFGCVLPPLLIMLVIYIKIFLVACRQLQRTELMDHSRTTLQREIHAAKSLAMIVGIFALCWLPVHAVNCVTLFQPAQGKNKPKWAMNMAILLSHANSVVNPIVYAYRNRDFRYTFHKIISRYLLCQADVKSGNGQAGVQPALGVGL
Procedure: as §1
Competition experiments of [^3H]-DPCPX to HEK-293 cells transfected with the human recombinant A^2B adenosine receptor were performed for 60 min at 25° C. in 0.1 ml of 50 mM Tris HCl buffer, 10 mM MgCl2, 1 mM EDTA, 0.1 mM benzamidine pH 7.4, 2 IU/ml adenosine deaminase containing 34 nM [^3H]-DPCPX, diluted membranes (20 μg of protein/assay) and at least 6-8 different concentrations of selected compounds.

human A3 receptors = target: T5, human A3 receptors (Homo sapiens, UniProt P0DMS8); test: [^3H] MRE3008F20 binding to human A3 receptors expressed in CHO cells (antagonist radioligand); details: human A3, CHO cells, antagonist radioligand; read-out: [^3H] MRE3008F20 binding to human A3 receptors expressed in CHO cells Ki
T5 construct: expressed in transfected cells; host or cells: CHO cells
T5 sequence (P0DMS8 1-318): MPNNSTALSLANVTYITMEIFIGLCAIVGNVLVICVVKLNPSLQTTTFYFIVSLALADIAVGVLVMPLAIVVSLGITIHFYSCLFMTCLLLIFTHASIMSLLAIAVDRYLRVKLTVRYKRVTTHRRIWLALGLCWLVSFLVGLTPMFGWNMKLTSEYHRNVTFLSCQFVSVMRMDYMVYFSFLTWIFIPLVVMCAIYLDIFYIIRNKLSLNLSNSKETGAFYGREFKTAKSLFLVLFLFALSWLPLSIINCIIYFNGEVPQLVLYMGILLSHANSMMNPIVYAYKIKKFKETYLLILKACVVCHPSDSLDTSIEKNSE
Procedure: as §1
Binding of [^3H]-MRE 3008F20 to CHO cells transfected with the human recombinant A3 adenosine receptors was performed according to Varani et al., 2000. Competition experiments were carried out in duplicate in a final volume of […] in test tubes containing 1 nM [^3H]-MRE 3008F20, 50 mM Tris HCl buffer, 10 mM MgCl2, 1 mM EDTA pH 7.4 and 100 μl of diluted membranes (50 μg of protein/assay) and at least 8-10 different concentrations of examined antagonists. Incubation time was 120 min at 4° C., according to the results of previous time-course experiments.

[2] = target: T6, human A1 adenosine receptors (Homo sapiens, UniProt P30542); test: Displacement of [^3H]CHA binding, human A1 adenosine receptors in CHO cells (agonist radioligand)
T6 sequence (P30542 1-326): T2 sequence (P30542 1-326)

[3] = target: T7, human A3 adenosine receptors (Homo sapiens, UniProt P0DMS8); details: for A1/A3: ratio Ki(A1)/Ki(A3), agonist radioligands
T7 sequence (P0DMS8 1-318): T5 sequence (P0DMS8 1-318)

A3 receptor = details: cited from earlier work

T3 sequence (P29274 whole entry): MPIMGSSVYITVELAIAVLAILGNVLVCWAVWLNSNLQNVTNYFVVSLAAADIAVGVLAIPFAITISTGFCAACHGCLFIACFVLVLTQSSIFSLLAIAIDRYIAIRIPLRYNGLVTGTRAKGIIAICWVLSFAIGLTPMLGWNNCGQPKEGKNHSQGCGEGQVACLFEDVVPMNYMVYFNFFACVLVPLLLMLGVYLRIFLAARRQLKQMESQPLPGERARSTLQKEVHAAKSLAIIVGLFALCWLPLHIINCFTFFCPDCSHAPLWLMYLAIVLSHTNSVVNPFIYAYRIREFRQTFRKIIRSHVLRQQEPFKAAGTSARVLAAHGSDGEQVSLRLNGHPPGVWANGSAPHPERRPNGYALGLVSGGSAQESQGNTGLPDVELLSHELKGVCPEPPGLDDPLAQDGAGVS
T1 sequence (P29274 whole entry): as above

SMILES | Ki [1] [nM] | Ki (human A1 receptors) [nM] | Ki (human A2A receptors) [nM] | Ki (human hA2B receptors) [nM] | Ki (human A3 receptors) [nM] | melting point | Ki [2] [nM] | Ki [3] [nM] | A1/A3 [3] | selective for the A3 receptor versus either the A1 or A2A receptors (A3 receptor) [fold]
CCNC(=O)[C@H]1O[C@@H](n2cnc3c(NC(=O)Nc4ccc(S(=O)(=O)NCC)cc4)ncnc32)[C@H](O)[C@@H]1O [Compound 85, 1-Deoxy-1-[6-[[[[4-[N-(ethyl)aminosulfonyl]phenyl]amino]-carbonyl]amino]-9H-purin-9-yl]-N-ethyl-β-D-ribofuranuronamide] | > 1000 | > 1000 | > 1000 | > 1000 | 237 | 180 to 183 °C | 250 | 23 | 10.86 | –
CCNC(=O)[C@H]1O[C@@H](n2cnc3c(NC(=O)Nc4ccc(S(=O)(=O)NC(C)(C)C)cc4)ncnc32)[C@H](O)[C@@H]1O [Compound 92, 1-Deoxy-1-[6-[[[[4-[N-(1,1-dimethylethyl)aminosulfonyl]phenyl]amino]-carbonyl]amino]-9H-purin-9-yl]-N-ethyl-β-D-ribofuranuronamide] | > 1000 | > 1000 | > 1000 | > 1000 | 330 | 185 °C | 250 | 20 | 12.5 | –
CCNC(=O)[C@H]1O[C@@H](n2cnc3c(NC(=O)Nc4ccc(S(=O)(=O)NC5CC5)cc4)ncnc32)[C@H](O)[C@@H]1O [Compound 89, 1-Deoxy-1-[6-[[[[4-[N-(cyclopropyl)aminosulfonyl]phenyl]amino]-carbonyl]-amino]-9H-purin-9-yl]-N-ethyl-β-D-ribofuranuronamide] | > 1000 | > 1000 | > 1000 | > 1000 | 340 | 180 °C (dec.) | 290 | 25 | 11.6 | –
CCNC(=O)[C@H]1O[C@@H](n2cnc3c(NC(=O)Nc4ccc(S(=O)(=O)N5CCOCC5)cc4)ncnc32)C(O)C1O (stereo partly drawn) [Compound 84, 1-Deoxy-1-[6-[[[[4-[(morpholine-1-yl)sulfonyl]phenyl]amino]carbonyl]amino]-9H-purin-9-yl]-N-ethyl-β-D-ribofuranuronamide] | > 1000 | > 1000 | > 1000 | > 1000 | 198 | 204 to 205 °C | 725 | 20 | 36.25 | –
CCNC(=O)[C@H]1O[C@@H](n2cnc3c(NC(=O)Nc4ccc(S(=O)(=O)NC56CC7CC(CC(C7)C5)C6)cc4)ncnc32)[C@H](O)[C@@H]1O [Compound 93, 1-Deoxy-1-[6-[[[[4-[N-(adamantan-1-yl)sulfonyl]phenyl]amino]carbonyl]-amino]-9H-purin-9-yl]-N-ethyl-β-D-ribofuranuronamide] | > 1000 | > 1000 | > 1000 | > 1000 | 310 | 192 °C | 240 | 35 | 7.5 | –
CCCCCNS(=O)(=O)c1ccc(NC(=O)Nc2ncnc3c2ncn3[C@@H]2O[C@H](C(=O)NCC)[C@@H](O)[C@H]2O)cc1 [Compound 87, 1-Deoxy-1-[6-[[[[4-[N-(pentyl)aminosulfonyl]phenyl]-amino]carbonyl]amino]-9H-purin-9-yl]-N-ethyl-β-D-ribofuranuronamide] | > 1000 | > 1000 | > 1000 | > 1000 | 886 | 199 °C | 445 | 80 | 5.56 | –
CNC(=O)[C@H]1O[C@@H](n2cnc3c(NCc4cccc(I)c4)ncnc32)[C@H](O)[C@@H]1O [IB-MECA, N^6-(3-iodo-benzyl)-adenosine-5′-N-methyl-uronamide] | – | – | – | – | – | – | – | – | – | 50
